Measured values published in US5324648A, “Substituted isocoumarins as serine protease inhibitors and anti-inflammatory agents” (Georgia Tech Research Corporation, priority 1992, dated 1994).
Structures can show the parent of a compound that is named as a salt.

What was measured:
[1] = biological target: T1, bovine thrombin (Bos taurus, UniProt P00735); assay: Inactivation rate of bovine thrombin; assay type: biochemical; settings: Table I; pH 7.5, 25° C; [I] 0.3 to 400 μM; read-out: kobs/[I]
T1 construct: bovine thrombin
Method: (§1) Inactivation rates of serine proteases by substituted isocoumarins were measured by the incubation method. An aliquot of inhibitor (25 or 50 μl) in Me2 SO was added to a buffered enzyme solution (0.01-2.3 μM) to initiate the inactivation. Aliquots (50 μl) were withdrawn at various intervals and the residual enzymatic activity was measured. Me2 SO concentration in the reaction mixture was 8-12% (v/v). 0.1 Hepes, 0.01M CaCl2, pH 7.5 buffer was utilized for trypsin and coagulation enzymes. 0.1M Hepes, 0.5M NaCl, pH 7.5 was utilized for other serine proteases. The inhibitor concentrations are shown in all the tables. Peptide thioesters or peptide nitroanilides with appropriate sequence were used as substrates for various serine proteases. All peptide thioester hydrolysis rates were measured with assay mixtures containing 4,4'-dithiodipyridine (ε324 =19800M^-1 cm^-1; Grasetti & Murray, Arch. Biochem. Biophys. 119, pp 41-49 (1967)). Peptide 4-nitroanilide nitroanilide hydrolysis was measured at 410 nm (ε410 =8800M^-1 cm^-1; Erlanger et al., Arch. Biochem. Biophys. 95, pp 271-278 (1961)). First order inactivation rate constant (kobs) were obtained from plots of ln (vt /vo) vs time, and the correlation coefficients were greater than 0.98.
(§2) ^a Conditions were as 0.1M Hepes, 0.01M CaCl2, pH 7.5 and 8-12%
(§3) Me2 SO and 25° C. Rate constants were measured by incubation
(§4) method unless otherwise noted. An aliquot of inhibitor was added to an
(§5) enzyme solution and aliquots removed with time and assayed for remaining
(§6) enzymatic activity. Firstorder rate constants, kobs were obtained
(§7) from the plots of ln(vt /vo) versus time.
(§8) ^a Inhibition rates were measured in 0.1M Hepes, 0.01M CaCl2, pH
(§9) 7.5 buffer, 8% Me2 SO and at 25° C.

[2] = biological target: chymotrypsin (Bos taurus, UniProt P00766); assay: Inactivation of chymotrypsin; assay type: biochemical, bovine; settings: Table IV; pH 7.5, 25° C; [I] 0.004 to 0.33 mM; read-out: kobs/[I]
[3] = biological target: T2, human plasma kallikrein (Homo sapiens, UniProt P03952); assay: Inactivation rate of human plasma kallikrein; assay type: biochemical; settings: Table I; pH 7.5, 25° C; [I] 3 to 330 μM (footnote g); read-out: kobs/[I]
T2 construct: human plasma kallikrein; from tissue; host or cells: human plasma (from the name)
T2 sequence (P03952 391-638 limits assumed): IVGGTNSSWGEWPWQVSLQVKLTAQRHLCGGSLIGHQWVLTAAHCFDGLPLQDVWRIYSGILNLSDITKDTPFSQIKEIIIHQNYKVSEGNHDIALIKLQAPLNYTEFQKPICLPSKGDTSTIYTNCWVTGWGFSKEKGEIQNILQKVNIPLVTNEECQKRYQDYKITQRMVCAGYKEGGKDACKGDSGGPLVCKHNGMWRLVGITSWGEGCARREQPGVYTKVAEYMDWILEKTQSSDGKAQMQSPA
T2 sequence (P03952 20-390 partner limits assumed): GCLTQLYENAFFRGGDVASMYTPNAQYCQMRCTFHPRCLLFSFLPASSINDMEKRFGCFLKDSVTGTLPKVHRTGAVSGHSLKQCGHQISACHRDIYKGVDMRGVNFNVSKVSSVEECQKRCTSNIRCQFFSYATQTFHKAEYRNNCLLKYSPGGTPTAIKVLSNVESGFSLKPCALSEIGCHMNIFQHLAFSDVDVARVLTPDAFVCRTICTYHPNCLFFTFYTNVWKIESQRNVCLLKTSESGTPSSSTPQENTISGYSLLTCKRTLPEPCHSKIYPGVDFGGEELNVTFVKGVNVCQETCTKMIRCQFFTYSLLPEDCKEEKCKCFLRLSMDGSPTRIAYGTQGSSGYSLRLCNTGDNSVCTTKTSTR
Method: as §1, §2, §3, §4, §5, §6, §7

[4] = biological target: T3, porcine pancreatic elastase (PPE) (Sus scrofa, UniProt P00772); assay: Inactivation of porcine pancreatic elastase (PPE); assay type: biochemical; settings: Table IV; pH 7.5, 25° C; [I] 0.01 to 0.51 mM; read-out: kobs/[I]
T3 construct: from tissue; host or cells: porcine pancreas (from the name)
T3 sequence (P00772 27-266): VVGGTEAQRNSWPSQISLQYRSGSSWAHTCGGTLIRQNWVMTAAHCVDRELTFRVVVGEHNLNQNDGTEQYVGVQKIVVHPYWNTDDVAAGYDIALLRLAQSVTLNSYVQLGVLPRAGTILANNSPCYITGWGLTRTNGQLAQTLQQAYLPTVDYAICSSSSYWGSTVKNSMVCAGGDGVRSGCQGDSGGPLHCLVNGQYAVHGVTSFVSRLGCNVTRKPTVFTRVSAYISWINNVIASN

[5] = biological target: T4, human factor XIIa (Homo sapiens, UniProt P00748); assay: Inactivation rate of human factor XIIa; assay type: biochemical; settings: Table I; pH 7.5, 25° C; [I] 3 to 330 μM; read-out: kobs/[I]
T4 construct: human factor XIIa
T4 sequence (P00748 373-615 limits assumed): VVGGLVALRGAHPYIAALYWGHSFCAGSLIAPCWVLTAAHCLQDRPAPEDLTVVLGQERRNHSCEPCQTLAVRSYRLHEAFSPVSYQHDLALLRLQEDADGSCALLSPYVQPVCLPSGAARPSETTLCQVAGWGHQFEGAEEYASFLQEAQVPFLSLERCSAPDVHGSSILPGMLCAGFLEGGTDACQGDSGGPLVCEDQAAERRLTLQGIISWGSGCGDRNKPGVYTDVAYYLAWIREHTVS
T4 sequence (P00748 20-372 partner limits assumed): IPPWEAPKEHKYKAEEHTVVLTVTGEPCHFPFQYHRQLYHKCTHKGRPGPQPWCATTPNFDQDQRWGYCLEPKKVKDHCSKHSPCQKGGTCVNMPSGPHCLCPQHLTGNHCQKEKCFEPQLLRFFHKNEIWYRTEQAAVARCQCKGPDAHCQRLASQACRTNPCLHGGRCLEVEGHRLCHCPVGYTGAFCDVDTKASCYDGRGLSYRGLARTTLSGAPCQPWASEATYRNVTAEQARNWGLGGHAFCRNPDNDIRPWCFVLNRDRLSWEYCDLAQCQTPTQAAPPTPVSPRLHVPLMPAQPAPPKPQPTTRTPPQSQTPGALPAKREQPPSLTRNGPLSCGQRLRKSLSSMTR
Method: as §1, §2, §3, §4, §5, §6, §7, §8, §9

[6] = biological target: sheep lung lymph tryptase; assay: Inactivation rate of sheep lung lymph tryptase; assay type: biochemical; settings: Table III; pH 7.5, 25° C; [I] 10 to 460 μM
Method: Inactivation rates of serine proteases by substituted isocoumarins were measured by the incubation method. An aliquot of inhibitor (25 or 50 μl) in Me2 SO was added to a buffered enzyme solution (0.01-2.3 μM) to initiate the inactivation. Aliquots (50 μl) were withdrawn at various intervals and the residual enzymatic activity was measured. […] 0.1 Hepes, 0.01M CaCl2, pH 7.5 buffer was utilized for trypsin and coagulation enzymes. […] The inhibitor concentrations are shown in all the tables. Peptide thioesters or peptide nitroanilides with appropriate sequence were used as substrates for various serine proteases.
^a Inactivation rates were measured at 0.1M Hepes, 0.5M NaCl, pH 7.5
buffer, 8% Me2 SO and 25° C.

[7] = biological target: T5, human plasmin (Homo sapiens, UniProt P00747); assay: Inactivation rate of human plasmin; assay type: biochemical; settings: Table VI; pH 7.5, 25° C; [I] 4 to 330 μM; read-out: kobs/[I]
T5 construct: human plasmin; from tissue; host or cells: human plasma
T5 sequence (P00747 581-810 limits assumed): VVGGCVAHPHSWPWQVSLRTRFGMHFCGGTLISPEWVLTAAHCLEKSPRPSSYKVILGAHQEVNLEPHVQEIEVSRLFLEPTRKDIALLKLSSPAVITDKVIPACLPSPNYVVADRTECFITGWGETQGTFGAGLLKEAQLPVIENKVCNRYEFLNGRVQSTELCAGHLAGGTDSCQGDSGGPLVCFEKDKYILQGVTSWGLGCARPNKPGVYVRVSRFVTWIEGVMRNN
T5 sequence (P00747 97-580 partner limits assumed): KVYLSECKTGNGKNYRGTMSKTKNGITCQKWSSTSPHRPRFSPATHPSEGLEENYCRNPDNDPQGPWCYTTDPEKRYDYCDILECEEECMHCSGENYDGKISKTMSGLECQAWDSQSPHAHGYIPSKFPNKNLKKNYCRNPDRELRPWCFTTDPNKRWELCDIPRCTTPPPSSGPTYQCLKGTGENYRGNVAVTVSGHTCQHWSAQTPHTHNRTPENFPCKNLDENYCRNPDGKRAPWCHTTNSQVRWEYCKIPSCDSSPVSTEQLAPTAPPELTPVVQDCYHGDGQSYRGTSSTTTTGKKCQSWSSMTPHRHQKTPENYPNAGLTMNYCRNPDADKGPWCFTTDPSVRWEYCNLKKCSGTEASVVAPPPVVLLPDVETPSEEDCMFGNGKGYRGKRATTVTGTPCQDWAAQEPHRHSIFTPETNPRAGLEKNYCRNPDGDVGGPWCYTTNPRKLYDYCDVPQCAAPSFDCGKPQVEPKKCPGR

[8] = biological target: T6, human leukocyte elastase (HLE) (Homo sapiens, UniProt P08246); assay: Inactivation of human leukocyte elastase (HLE); assay type: biochemical; settings: Table IV; pH 7.5, 25° C; [I] 0.001 to 0.18 mM; read-out: kobs/[I]
T6 construct: from tissue; host or cells: human leukocytes (from the name)
T6 sequence (P08246 30-267): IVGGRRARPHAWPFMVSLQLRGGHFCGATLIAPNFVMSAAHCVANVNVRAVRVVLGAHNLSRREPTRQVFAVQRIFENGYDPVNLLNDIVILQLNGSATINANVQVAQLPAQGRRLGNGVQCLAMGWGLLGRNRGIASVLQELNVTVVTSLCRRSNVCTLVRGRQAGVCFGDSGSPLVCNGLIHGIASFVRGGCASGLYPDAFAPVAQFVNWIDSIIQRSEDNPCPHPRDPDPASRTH

[9] = biological target: T7, porcine pancreatic kallikrein (Sus scrofa, UniProt P00752); assay: Inactivation rate of porcine pancreatic kallikrein; assay type: biochemical; settings: Table I; pH 7.5, 25° C; [I] 0.4 to 300 μM; read-out: kobs/[I]
T7 construct: from tissue; host or cells: porcine pancreas (from the name)
T7 sequence (P00752 8-246): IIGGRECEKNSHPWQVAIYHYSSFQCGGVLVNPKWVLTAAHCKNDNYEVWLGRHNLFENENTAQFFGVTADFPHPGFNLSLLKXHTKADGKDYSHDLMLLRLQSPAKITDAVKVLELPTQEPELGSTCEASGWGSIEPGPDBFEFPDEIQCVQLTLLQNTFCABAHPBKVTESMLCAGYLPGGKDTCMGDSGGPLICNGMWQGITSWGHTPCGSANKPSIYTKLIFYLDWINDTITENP

[10] = biological target: T8, human factor XIa (Homo sapiens, UniProt P03951); assay: Inactivation rate of human factor XIa; assay type: biochemical; settings: Table I; pH 7.5, 25° C; [I] 3 to 330 μM; read-out: kobs/[I]
T8 construct: human factor XIa
T8 sequence (P03951 388-625 limits assumed): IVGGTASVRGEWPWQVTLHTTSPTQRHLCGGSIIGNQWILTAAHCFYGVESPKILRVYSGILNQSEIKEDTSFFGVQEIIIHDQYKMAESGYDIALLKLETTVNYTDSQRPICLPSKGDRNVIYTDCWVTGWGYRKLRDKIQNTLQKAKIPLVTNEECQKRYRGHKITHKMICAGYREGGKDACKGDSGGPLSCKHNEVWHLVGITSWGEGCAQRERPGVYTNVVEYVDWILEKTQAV
T8 sequence (P03951 19-387 partner limits assumed): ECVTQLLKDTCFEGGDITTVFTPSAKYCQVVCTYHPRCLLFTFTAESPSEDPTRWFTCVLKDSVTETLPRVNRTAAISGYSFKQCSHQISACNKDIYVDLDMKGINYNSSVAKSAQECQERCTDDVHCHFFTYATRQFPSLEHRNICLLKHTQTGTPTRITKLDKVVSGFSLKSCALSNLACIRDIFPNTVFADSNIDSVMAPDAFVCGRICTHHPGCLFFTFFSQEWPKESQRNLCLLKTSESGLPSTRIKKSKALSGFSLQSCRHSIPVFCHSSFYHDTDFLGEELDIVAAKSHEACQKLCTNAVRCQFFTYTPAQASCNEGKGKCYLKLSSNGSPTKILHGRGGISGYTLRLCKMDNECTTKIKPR
Method: as §1, §2, §3, §4, §5, §6, §7, §8, §9

[11] = biological target: T9, bovine trypsin (Bos taurus, UniProt P00760); assay: Inactivation rate of bovine trypsin; assay type: biochemical; settings: Table I; pH 7.5, 25° C; [I] 1 to 12 μM; read-out: kobs/[I]
T9 sequence (P00760 24-246): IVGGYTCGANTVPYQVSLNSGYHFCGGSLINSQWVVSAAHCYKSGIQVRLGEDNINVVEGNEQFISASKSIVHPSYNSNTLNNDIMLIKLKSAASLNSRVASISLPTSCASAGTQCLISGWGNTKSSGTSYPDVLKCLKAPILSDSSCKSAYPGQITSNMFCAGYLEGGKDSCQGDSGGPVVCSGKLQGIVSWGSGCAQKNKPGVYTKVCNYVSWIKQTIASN
Method: as §1, §2, §3, §4, §5, §6, §7, §8, §9

[12] = Spontaneous hydrolysis in Hepes buffer; assay type: physicochemical; settings: hepes buffer; 0.1 Hepes, 0.5M NaCl, pH 7.5, 9% Me2SO, 25° C; read-out: t1/2 for spontaneous hydrolysis
Method: ^a Conditions were 0.1 Hepes, 0.5M NaCl, pH 7.5 and 9% Me2 SO at
25° C. Spontaneous hydrolysis rates were measured
spectrophotometrically by monitoring the decrease in absorbance due to th
isocoumarin ring system (wavelength 335-380 nm) using the firstorder rate

[13] = biological target: T10, cathepsin G (Homo sapiens, UniProt P08311); assay: Inactivation of cathepsin G; assay type: biochemical; settings: Table IV; pH 7.5, 25° C; [I] 0.002 to 0.35 mM; read-out: kobs/[I]
T10 construct: from tissue; host or cells: human leukocytes
T10 sequence (P08311 21-255): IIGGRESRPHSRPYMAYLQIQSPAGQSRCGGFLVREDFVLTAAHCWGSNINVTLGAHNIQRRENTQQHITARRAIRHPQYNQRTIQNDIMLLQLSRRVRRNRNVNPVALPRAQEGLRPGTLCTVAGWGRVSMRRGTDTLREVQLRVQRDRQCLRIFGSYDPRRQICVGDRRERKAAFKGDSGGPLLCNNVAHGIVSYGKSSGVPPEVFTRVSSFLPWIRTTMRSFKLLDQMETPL

kinact/KI [1] | kinact/KI [2] | kinact/KI [3] | kinact/KI [4] | kinact/KI [5] | kobs/[I] [6] | kinact/KI [7] | kinact/KI [8] | kinact/KI [9] | kinact/KI [10] | kinact/KI [11] | half-life [12] | kinact/KI [13] | SMILES
3 M⁻¹ s⁻¹ | 38 M⁻¹ s⁻¹ | 30 M⁻¹ s⁻¹ | 2.3 M⁻¹ s⁻¹ | 3 M⁻¹ s⁻¹ | 8.1 M⁻¹ s⁻¹ | 36 M⁻¹ s⁻¹ | 47 M⁻¹ s⁻¹ | 5 M⁻¹ s⁻¹ | 30 M⁻¹ s⁻¹ | 1200 M⁻¹ s⁻¹ | 10.1 h | 2.8 M⁻¹ s⁻¹ | NCCCOc1cc2ccccc2c(=O)o1 [3-(3-aminopropoxy)isocoumarin]
– | – | – | 1610 M⁻¹ s⁻¹ | – | – | 31 M⁻¹ s⁻¹ | 13500 M⁻¹ s⁻¹ | – | – | 470 M⁻¹ s⁻¹ | – | 20 M⁻¹ s⁻¹ | COc1oc(=O)c2cc(NC(=O)[C@H](C)N)ccc2c1Cl [7-(Alanylamino)-3-Methoxy-4-Chloroisocoumarin Hydrochloride]
51.5 M⁻¹ s⁻¹ | – | – | 1960 M⁻¹ s⁻¹ | – | – | 1470 M⁻¹ s⁻¹ | 7710 M⁻¹ s⁻¹ | – | – | 32100 M⁻¹ s⁻¹ | – | 4.9 M⁻¹ s⁻¹ | COc1oc(=O)c2cc(NC(=O)CN)ccc2c1Cl [7-(glycylamino)-4-chloro-3-methoxyisocoumarin]
